Publication PMC4261083, “An atypical residue in the pore of Varroa destructor GABA-activated RDL receptors affects picrotoxin block and thymol modulation” (Insect Biochemistry and Molecular Biology, 2014)
Numbering of substitutions follows the chain as printed.

Experiments:
Test in all cases: GABA activation of RDL receptors, two electrode voltage clamp in Xenopus oocytes
Type in all cases: cell-based
[1] = target: T1, A21′Q mutant Drosophila RDL receptor (Drosophila melanogaster, UniProt P25123, A320Q)
T1 construct: expressed in transfected cells; host or cells: Xenopus laevis oocytes injected with cRNA
T1 sequence (P25123 45-606 A320Q): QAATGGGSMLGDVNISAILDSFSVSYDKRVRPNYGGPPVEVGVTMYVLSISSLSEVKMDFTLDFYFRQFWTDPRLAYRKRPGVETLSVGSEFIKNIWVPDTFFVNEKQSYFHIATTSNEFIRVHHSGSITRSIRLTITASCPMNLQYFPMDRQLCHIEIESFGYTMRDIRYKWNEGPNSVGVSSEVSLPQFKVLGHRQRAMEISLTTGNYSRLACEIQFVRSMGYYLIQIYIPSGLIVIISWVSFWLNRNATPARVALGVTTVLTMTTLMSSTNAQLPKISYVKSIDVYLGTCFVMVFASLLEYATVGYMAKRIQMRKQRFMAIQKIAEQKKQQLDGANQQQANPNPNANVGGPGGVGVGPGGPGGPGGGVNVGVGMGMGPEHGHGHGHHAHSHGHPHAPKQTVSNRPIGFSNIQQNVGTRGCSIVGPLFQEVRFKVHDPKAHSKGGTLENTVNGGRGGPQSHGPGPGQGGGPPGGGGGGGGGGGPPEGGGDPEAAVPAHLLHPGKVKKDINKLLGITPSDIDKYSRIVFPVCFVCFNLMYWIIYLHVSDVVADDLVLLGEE
Experimental: (§1) X. laevis oocyte-positive females were purchased from NASCO (Fort Atkinson, Wisconsin, USA) and maintained according to standard methods. Harvested stage V-VI Xenopus oocytes were washed in four changes of ND96 (96 mM NaCl, 2 mM KCl, 1 mM MgCl2, 1 mM CaCl2, 5 mM HEPES, pH 7.5), de-folliculated in 1.5 mg ml^−1 collagenase Type 1A for approximately 2 h, washed again in four changes of ND96 and stored in ND96 containing 2.5 mM sodium pyruvate, 0.7 mM theophylline and […].
(§2) Site directed mutagenesis was performed with the QuikChange mutagenesis kit (Agilent, La Jolla, CA). cRNA was transcribed in vitro from linearised pGEMHE cDNA template using the mMessage mMachine T7 Transcription kit (Ambion, Austin, Texas, USA). Stage V and VI oocytes were injected with 5 ng cRNA, incubated at 18 °C, and currents recorded 18–24 h post-injection.
(§3) Currents were recorded at 5 kHz and filtered at a frequency of 1 kHz. Micro-electrodes were fabricated from borosilicate glass (GC120TF-10, Harvard Apparatus, Edenbridge, Kent, UK) using a one stage horizontal pull (P-87, Sutter Instrument Company, California, USA) and filled with 3 M KCl. […] Oocytes were perfused with ND96 at a constant rate of 12 ml min^−1. Drug application was via a simple gravity fed system calibrated to run at the same rate.
(§4) Analysis and curve fitting was performed using Prism v5 (GraphPad Software, San Diego, California, USA). Concentration-response data for each oocyte was normalised to the maximum current for that oocyte. The mean and S.E.M. for a series of oocytes were fitted to the four parameter logistic equation in Prism.

[2] = target: T2, N-7′H mutant Drosophila RDL receptor (Drosophila melanogaster, UniProt P25123, N292H); conditions: N-7′H RDL
T2 construct: expressed in transfected cells; host or cells: Xenopus laevis oocytes injected with cRNA
T2 sequence (P25123 45-606 N292H): T1 sequence (P25123 45-606 A320Q) with N248H, Q276A
Experimental: as §1, §2, §3, §4

[3] = target: T3, T6′M mutant Drosophila RDL receptor (Drosophila melanogaster, UniProt P25123, T305M)
T3 construct: expressed in transfected cells; host or cells: Xenopus laevis oocytes injected with cRNA
T3 sequence (P25123 45-606 T305M): T1 sequence (P25123 45-606 A320Q) with T261M, Q276A
Experimental: as §1, §2, §3, §4

NCCCC(=O)O [GABA]
GABA nH (Hill slope) [1]: 1.9 ± 0.4 | GABA nH (Hill slope) [2]: 2.5 ± 0.5 | GABA nH (Hill slope) [3]: 1.4 ± 0.2
